Experimental data from US10189826B2, “Heterocyclic compounds and methods of use” (Medivation Technologies LLC, priority 2015, dated 2019).
Where two headings read alike, the source gives them in different places.

Key:
[1] = Cytotoxicity assay (LDH release) in HepG2_LSSprom cells; assay type: cell-based; settings: human, HepG2 LSSprom cells, 24 h treatment, LDH release
Description: (§1) HepG2_LSSprom cells (SwitchGear Genomics, cat# C711010L) were cultured in DMEM with 10% of fetal bovine serum (FBS), supplemented with Puromycin (1 μg/mL), 1% Penicillin/Streptomycin (Pen-Strep), 37° C., humidified, 95% air and 5% CO2. Culture media was refreshed every 2 or 3 days. Cells were used between passage number 6-12.
For cytotoxicity assays, cells were plated out at 20,000 cells/well in transparent 96 well plates in DMEM plus 10% FBS and 1% Pen-Strep without puromycin. After 1 day, cells were treated with Compound by diluting in culture medium without FBS to a final concentration of 0.625, 1.25, 2.5, 3.75, 5 and 10 μM. Compound was prepared by dilutions of 10 mM stock aliquots. As a negative control culture medium was used without FBS plus DMSO. As maximum LDH release control (Lysis control) a lysis buffer provided by the kit manufacturer was used. Treatments with Compound were maintained for 6 h, or 24 h, in cell culture medium without serum until the cytotoxicity assay was started.
The cytotoxicity assay was performed according to the manufacturer's instructions. As maximum LDH release control (Lysis control) 3 wells per plate were treated with 10 μL of lysis buffer 45 min before the treatment was over. Briefly, after the 6 h, or 24 h, of treatment, 50 μL of media from each well was transferred to a new 96-well plate. To the transferred media, 50 μL of reconstituted substrate mix was added. The plates were covered from light and incubated at RT for 10 min. Then, 50 μL of stop solution was added to each well. The plates were then read using a Synergy 4 (Biotek) equipment recording the absorbance at 490 nm.
(§2) Five independent experiments were carried out for both luciferase and cytotoxicity assay. In each experiment, three wells were use per condition and the results are represented as means±SEM.
For cytotoxicity assay, Lysis control was taken as 100%/o of LDH release. The vehicle values were taken as basal LDH release and were subtracted to all the treatments (including vehicle itself) having this value as 0% of LDH release. The LDH release for the treatments was calculated respect to the 100% of LDH release of Lysis control normalized against vehicle. All the negatives values were taken as 0% of cytotoxicity. The graphics were made using the Graph Prism ver. 6.05 software.

[2] = system: SREBP-2 transcriptional activity (SREBP2 cleavage) in HepG2_LSSprom cells; assay: Luciferase reporter driven by a SREBP-2 specific promoter in HepG2_LSSprom cells; assay type: cell-based; settings: 24 h, read-out: SREBP2 Cleavage (IC50 μM) 24 h
Description: Dose response effects were measured of Compounds on the transcriptional activity of a Luciferase reporter driven by a SREBP-2 specific promoter in HepG2_LSSprom cells.
as §1
For luminescence assays, cells were plated out at 20,000 cells/well in white 96 well plates in DMEM plus 10% FBS and 1% Pen-Strep without puromycin. After 1 day, cells were treated with Compound by diluting the drug in culture medium without FBS to a final concentration of 0.625, 1.25, 2.5, 3.75, 5 and 10 μM. Drug was prepared by dilutions of 10 mM stock aliquots. As control was used culture medium without FBS plus DMSO. Treatments with Compound were maintained for 6 h, or 24 h, until the luciferase assay was carried out.
After 6 h of treatments with Compound, the luciferase assay was performed. Briefly, the assay solution (buffer+substrate) was prepare just prior to use. To each well 100 μL of assay solution was added. The 96-well plate was then gently mix for 2 min and incubated for 30 min at RT protected from light. The luminescence was read using a Synergy 4 (Biotek) equipment recording luminescence with sensibility set up at 150.
as §2
For luciferase assay, Vehicle (no treatment) was taken as 100% of luciferase activity. This value represents the SREBP-2 transcriptional activity for the vehicle condition and was taken as 100% of SREBP-2 cleaved. The percentage for each treatment was calculated normalizing against the vehicle control. The graphics were made using the GraphPad Prism ver. 6.05 software. Half of maximal inhibitory concentration (IC50) of the effect of Compound on SREBP was obtain by nonlinear fit regression of mean normalized values vs. Compound concentration using the log(inhibitor) vs. response−Variable slope (four parameters) tool.

[3] = 24 h treatment, HepG2_LSSprom cells

Compound | IC50 at 24 h [1] | IC50 [2, 3] | IC50 [2]
CC(C)(C)c1cc(-c2cc(-c3ccc(C(=O)N4CCC[C@H](O)C4)cc3Cl)cs2)ccn1 [Compound 48b, (S)-(4-(5-(2-(tert-butyl)pyridin-4-yl)thiophen-3-yl)-3-chlorophenyl)(3-hydroxypiperidin-1-yl)methanone] | > 10 µM | 0.12 µM | 
CC(C)(C)c1cc(-c2cc(-c3ccc(C(=O)Nc4cccc(O)c4)cc3Cl)cs2)ccn1 [Compound 49, 4-[5-(2-tert-butylpyridin-4-yl)thiophen-3-yl]-3-chloro-N-(3-hydroxyphenyl) benzamide] | > 10 µM | > 1 µM | 
C[C@@H]1CN(C(=O)c2ccc(-c3csc(-c4ccnc(C(C)(C)C)c4)c3)c(Cl)c2)C[C@H](C)O1 [Compound 50, (2R,6S)-4-{4-[5-(2-tert-butylpyridin-4-yl)thiophen-3-yl]-3-chlorobenzoyl}-2,6-dimethylmorpholine] | > 10 µM | 1.3 µM | 
CC(C)N1CCc2cc(-c3csc(-c4ccnc(C(C)(C)C)c4)c3)c(Cl)cc2C1=O [Compound 52, 6-[5-(2-tert-butylpyridin-4-yl)thiophen-3-yl]-7-chloro-2-(propan-2-yl)-1,2,3,4-tetrahydroisoquinolin-1-one] | > 10 µM | 1.7 µM | 
Cc1cc(C)c(CNC(=O)c2ccc(-c3csc(-c4ccnc(C(C)(C)C)c4)c3)c(Cl)c2)c(=O)[nH]1 [Compound 53, 4-[5-(2-tert-butylpyridin-4-yl)thiophen-3-yl]-3-chloro-N-[(4,6-dimethyl-2-oxo-1,2-dihydropyridin-3-yl)methyl]benzamide] | > 10 µM | 3.9 µM | 
CC(C)(C)c1cc(-c2cc(-c3ccc(C(=O)Nc4ccc(F)cc4)cc3Cl)cs2)ccn1 [Compound 54, 4-[5-(2-tert-butylpyridin-4-yl)thiophen-3-yl]-3-chloro-N-(4-fluorophenyl) benzamide] | > 10 µM | 0.54 µM | 
CC(C)(C)C(=O)NC1CCCN(C(=O)c2ccc(-c3csc(-c4ccnc(C(C)(C)C)c4)c3)c(Cl)c2)C1 (stereo not drawn) [Compound 55, N-(1-{4-[5-(2-tert-butylpyridin-4-yl)thiophen-3-yl]-3-chlorobenzoyl}piperidin-3-yl)-2,2-dimethylpropanamide] | > 10 µM | 0.36 µM | 
CC(C)(C)c1cc(-c2cc(-c3ccc(C(=O)N4CCCC(NC(=O)NC5CC5)C4)cc3Cl)cs2)ccn1 (stereo not drawn) [Compound 56, 1-(1-{4-[5-(2-tert-butylpyridin-4-yl)thiophen-3-yl]-3-chlorobenzoyl}piperidin-3-yl)-3-cyclopropylurea] | > 10 µM | 1 µM | 
CC(C)(C)c1cc(-c2cc(-c3ccc(C(=O)N4CCC(O)CC4)cc3Cl)cs2)ccn1 [Compound 57, 1-{4-[5-(2-tert-butylpyridin-4-yl)thiophen-3-yl]-3-chlorobenzoyl}piperidin-4-ol] | > 10 µM | 0.55 µM | 
CC(C)(C)c1cc(-c2cc(-c3ccc(C(=O)Nc4cccnc4)cc3Cl)cs2)ccn1 [Compound 58, 4-[5-(2-tert-butylpyridin-4-yl)thiophen-3-yl]-3-chloro-N-(pyridin-3-yl)benzamide] | > 10 µM | 1.4 µM | 
CC(C)(C)c1cc(-c2cc(-c3ccc(C(=O)N4CCC(NS(C)(=O)=O)CC4)cc3Cl)cs2)ccn1 [Compound 59, N-(1-{4-[5-(2-tert-butylpyridin-4-yl)thiophen-3-yl]-3-chlorobenzoyl}piperidin-4-yl)methanesulfonamide] | > 10 µM | 1.6 µM | 
CN(C(=O)c1ccc(-c2csc(-c3ccnc(C(C)(C)C)c3)c2)c(Cl)c1)c1ncco1 [Compound 60, 4-[5-(2-tert-butylpyridin-4-yl)thiophen-3-yl]-3-chloro-N-methyl-N-(1,3-oxazol-2-yl)benzamide] | > 10 µM | 3.5 µM | 
CC(C)(C)c1cc(-c2cc(-c3ccc(C(=O)NCC(=O)N4CCOCC4)cc3Cl)cs2)ccn1 [Compound 61, 4-[5-(2-tert-butylpyridin-4-yl)thiophen-3-yl]-3-chloro-N-[2-(morpholin-4-yl)-2-oxoethyl]benzamide] | > 10 µM | 1.5 µM | 
CN1C2CCC1CC(NC(=O)c1ccc(-c3csc(-c4ccnc(C(C)(C)C)c4)c3)c(Cl)c1)C2 (stereo not drawn) [Compound 62] | > 10 µM |  | > 3 µM
CCOC(=O)NC1CCN(C(=O)c2ccc(-c3csc(-c4ccnc(C(C)(C)C)c4)c3)c(Cl)c2)CC1 [Compound 63, ethyl N-(1-{4-[5-(2-tert-butylpyridin-4-yl)thiophen-3-yl]-3-chlorobenzoyl}piperidin-4-yl)carbamate] | > 10 µM | 2.1 µM | 
CC(C)(C)OC(=O)NC1CCCN(C(=O)c2ccc(-c3csc(-c4ccnc(N5CCOCC5)c4)c3)c(Cl)c2)C1 (stereo not drawn) [Compound 64, tert-butyl N-[1-(3-chloro-4-{5-[2-(morpholin-4-yl)pyridin-4-yl]thiophen-3-yl}benzoyl)piperidin-3-yl]carbamate] | > 10 µM | 0.4 µM | 
NC1CCCN(C(=O)c2ccc(-c3csc(-c4ccnc(N5CCOCC5)c4)c3)c(Cl)c2)C1 (stereo not drawn) [Compound 65, 1-(3-chloro-4-(5-[2-(morpholin-4-yl)pyridin-4-yl]thiophen-3-yl)benzoyl)piperidin-3-amine] | > 10 µM | 2.4 µM | 
Cc1sc(-c2ccnc(C(C)(C)C)c2)cc1-c1ccc(C(=O)N2CCCC(N)C2)cc1Cl (stereo not drawn) [Compound 66, 1-{4-[5-(2-tert-butylpyridin-4-yl)-2-methylthiophen-3-yl]-3-chlorobenzoyl}piperidin-3-amine] | > 10 µM | > 10 µM | 
Cc1sc(-c2ccnc(C(C)(C)C)c2)cc1-c1ccc(C(=O)Nc2ccccc2)cc1Cl [Compound 67, 4-[5-(2-tert-butylpyridin-4-yl)-2-methylthiophen-3-yl]-3-chloro-N-phenyl benzamide] | > 10 µM |  | 4.7 µM
CC(C)(C)c1cc(-c2csc(-c3ccc(C(=O)N4CC[C@H](O)C4)cc3Cl)c2)ccn1 [Compound 68a, (3S)-1-{4-[4-(2-tert-butylpyridin-4-yl)thiophen-2-yl]-3-chlorobenzoyl}pyrrolidin-3-ol] | > 10 µM | 0.15 µM | 
CC(C)(C)c1cc(-c2csc(-c3ccc(C(=O)N4CC[C@@H](O)C4)cc3Cl)c2)ccn1 [Compound 68b, (3R)-1-{4-[4-(2-tert-butylpyridin-4-yl)thiophen-2-yl]-3-chlorobenzoyl}pyrrolidin-3-ol] | > 10 µM | 0.06 µM | 
CC(C)(C)OC(=O)N[C@@H]1CCCN(C(=O)c2ccc(-c3cc(-c4ccnc(C(C)(C)C)c4)cs3)c(Cl)c2)C1 [Compound 69, tert-butyl N-[(3R)-1-{4-[4-(2-tert-butylpyridin-4-yl)thiophen-2-yl]-3-chlorobenzoyl}piperidin-3-yl]carbamate] | > 10 µM | 0.015 µM | 
CN(C(=O)OC(C)(C)C)C1CCCN(C(=O)c2ccc(-c3csc(-c4ccnc(C(C)(C)C)c4)c3)c(Cl)c2)C1 (stereo not drawn) [Compound 70, tert-butyl N-(1-{4-[5-(2-tert-butylpyridin-4-yl)thiophen-3-yl]-3-chlorobenzoyl}piperidin-3-yl)-N-methylcarbamate] | > 10 µM | 0.08 µM | 
CC(C)(C)OC(=O)N1CCCC(NC(=O)c2ccc(-c3csc(-c4ccnc(C(C)(C)C)c4)c3)c(Cl)c2)C1 (stereo not drawn) [Compound 71, tert-butyl 3-{4-[5-(2-tert-butylpyridin-4-yl)thiophen-3-yl]-3-chlorobenzamido}piperidine-1-carboxylate] | > 10 µM | 0.34 µM | 
